# Assays:
# Assay type in all cases: physicochemical
# [1] = Assay (%) test of APIs in cream, stability study, HPLC method
# Procedure: The stability of the product is confirmed by the stability studies performed for 3/6 months as per ICH guidelines.
# APIs-stability experiments were carried out (see tables 3-20) using several products that are representative of the present invention. Tests were carried out to observe (or measure as appropriate) the physical appearance of the product, the pH value and assay of the APIs over a period of time. […] Betamethasone Valerate—0.12% (w/w) • ii. Fluticasone Propionate—0.05% (w/w) • iii. Mometasone Furoate—0.1% (w/w) • iv. Dexamethasone Acetate—0.1% (w/w) • v. Hydrocortisone Acetate—1.0% (w/w) • vi. Clobetasol Propionate—0.05% (w/w) • vii. Beclomethasone Dipropionate—0.025% (w/w) • viii. Betamethasone Dipropionate—0.05% (w/w) wherein all percentages are with respect to the final formulation.
# The product used for the Stability Studies tests contained approximately 10% extra APIs (overages).
# [2] = Stability analysis of raw API by stability indicating HPLC method; conditions: for Assay (%) HPLC / Percentage Drop (%) HPLC / loss in 3 Months: raw API; for Assay (%) HPLC / Percentage Drop (%) HPLC: after 3 Months
# From the text: (§1) In both studies the * Initial denotes the results of the samples tested at the time of receipt of the API from the supplier.
# [3] = Stability analysis of raw API by titration method (BP); conditions: after 3 Months
# From the text: as §1
smiles,measurement,setting,value
CC(=O)O[C@H]1C[C@@]2(C)[C@@H](C[C@@H](O)[C@H]3[C@@]4(C)CC[C@@H](O)[C@@H](C)[C@@H]4CC[C@@]32C)/C1=C(\CCC=C(C)C)C(=O)O [Fusidic acid],Assay (%),"[1]; in cream Batch No. HAS-01, 25° C. 60% RH, 1st Month",108.50%
same,Assay (%),"[1]; in cream Batch No. HAS-01, 25° C. 60% RH, 2nd Month",108.44%
same,Assay (%),"[1]; in cream Batch No. HAS-01, 25° C. 60% RH, 3rd Month",108.36%
same,Assay (%),"[1]; in cream Batch No. HAS-01, 30° C. 65% RH, 1st Month",108.51%
same,Assay (%),"[1]; in cream Batch No. HAS-01, 30° C. 65% RH, 2nd Month",108.42%
same,Assay (%),"[1]; in cream Batch No. HAS-01, 30° C. 65% RH, 3rd Month",108.32%
same,Assay (%),"[1]; in cream Batch No. HAS-01, 40° C. 75% RH, 1st Month",108.48%
same,Assay (%),"[1]; in cream Batch No. HAS-01, 40° C. 75% RH, 2nd Month",108.34%
same,Assay (%),"[1]; in cream Batch No. HAS-01, 40° C. 75% RH, 3rd Month",108.20%
same,Assay (%),"[1]; in cream Batch No. HAS-01, Freezthaw, 1st Month",108.31%
same,Assay (%),"[1]; in cream Batch No. HAS-01, Initial",108.52%
same,Assay (%),"[1]; in cream Batch No. HAS-01, Temperature cycling, 1st Month",108.40%
same,Assay (%),"[1]; in cream Batch No. SBV-01, 25° C. 60% RH, 1st Month",108.54%
same,Assay (%),"[1]; in cream Batch No. SBV-01, 25° C. 60% RH, 2nd Month",108.42%
same,Assay (%),"[1]; in cream Batch No. SBV-01, 25° C. 60% RH, 3rd Month",108.40%
same,Assay (%),"[1]; in cream Batch No. SBV-01, 30° C. 65% RH, 1st Month",108.53%
same,Assay (%),"[1]; in cream Batch No. SBV-01, 30° C. 65% RH, 2nd Month",108.41%
same,Assay (%),"[1]; in cream Batch No. SBV-01, 30° C. 65% RH, 3rd Month",108.36%
same,Assay (%),"[1]; in cream Batch No. SBV-01, 40° C. 75% RH, 1st Month",108.46%
same,Assay (%),"[1]; in cream Batch No. SBV-01, 40° C. 75% RH, 2nd Month",108.16%
same,Assay (%),"[1]; in cream Batch No. SBV-01, 40° C. 75% RH, 3rd Month",108.11%
same,Assay (%),"[1]; in cream Batch No. SBV-01, Freezthaw, 1st Month",108.01%
same,Assay (%),"[1]; in cream Batch No. SBV-01, Initial",108.57%
same,Assay (%),"[1]; in cream Batch No. SBV-01, Temperature cycling, 1st Month",107.53%
same,Assay (%),"[1]; in cream Batch No. SFB-01, 25° C. 60% RH, 1st Month",108.22%
same,Assay (%),"[1]; in cream Batch No. SFB-01, 25° C. 60% RH, 2nd Month",108.18%
same,Assay (%),"[1]; in cream Batch No. SFB-01, 25° C. 60% RH, 3rd Month",108.15%
same,Assay (%),"[1]; in cream Batch No. SFB-01, 30° C. 65% RH, 1st Month",108.25%
same,Assay (%),"[1]; in cream Batch No. SFB-01, 30° C. 65% RH, 2nd Month",108.22%
same,Assay (%),"[1]; in cream Batch No. SFB-01, 30° C. 65% RH, 3rd Month",108.18%
same,Assay (%),"[1]; in cream Batch No. SFB-01, 40° C. 75% RH, 1st Month",108.25%
same,Assay (%),"[1]; in cream Batch No. SFB-01, 40° C. 75% RH, 2nd Month",108.20%
same,Assay (%),"[1]; in cream Batch No. SFB-01, 40° C. 75% RH, 3rd Month",108.12%
same,Assay (%),"[1]; in cream Batch No. SFB-01, Freezthaw, 1st Month",108.11%
same,Assay (%),"[1]; in cream Batch No. SFB-01, Initial",108.28%
same,Assay (%),"[1]; in cream Batch No. SFB-01, Temperature cycling, 1st Month",108.23%
same,Assay (%),"[1]; in cream Batch No. SFC-01, 25° C. 60% RH, 1st Month",108.64%
same,Assay (%),"[1]; in cream Batch No. SFC-01, 25° C. 60% RH, 2nd Month",108.52%
same,Assay (%),"[1]; in cream Batch No. SFC-01, 25° C. 60% RH, 3rd Month",108.48%
same,Assay (%),"[1]; in cream Batch No. SFC-01, 25° C. 60% RH, 6th Month",108.38%
same,Assay (%),"[1]; in cream Batch No. SFC-01, 30° C. 65% RH, 1st Month",108.53%
same,Assay (%),"[1]; in cream Batch No. SFC-01, 30° C. 65% RH, 2nd Month",108.31%
same,Assay (%),"[1]; in cream Batch No. SFC-01, 30° C. 65% RH, 3rd Month",108.26%
same,Assay (%),"[1]; in cream Batch No. SFC-01, 30° C. 65% RH, 6th Month",108.22%
same,Assay (%),"[1]; in cream Batch No. SFC-01, 40° C. 75% RH, 1st Month",108.56%
same,Assay (%),"[1]; in cream Batch No. SFC-01, 40° C. 75% RH, 2nd Month",108.36%
same,Assay (%),"[1]; in cream Batch No. SFC-01, 40° C. 75% RH, 3rd Month",108.21%
same,Assay (%),"[1]; in cream Batch No. SFC-01, 40° C. 75% RH, 6th Month",108.18%
same,Assay (%),"[1]; in cream Batch No. SFC-01, Freezthaw, 1st Month",108.21%
same,Assay (%),"[1]; in cream Batch No. SFC-01, Initial",108.68%
same,Assay (%),"[1]; in cream Batch No. SFC-01, Temperature cycling, 1st Month",108.10%
same,Assay (%),"[1]; in cream Batch No. SFD-01, 25° C. 60% RH, 1st Month",108.60%
same,Assay (%),"[1]; in cream Batch No. SFD-01, 25° C. 60% RH, 2nd Month",108.54%
same,Assay (%),"[1]; in cream Batch No. SFD-01, 25° C. 60% RH, 3rd Month",108.46%
same,Assay (%),"[1]; in cream Batch No. SFD-01, 30° C. 65% RH, 1st Month",108.63%
same,Assay (%),"[1]; in cream Batch No. SFD-01, 30° C. 65% RH, 2nd Month",108.52%
same,Assay (%),"[1]; in cream Batch No. SFD-01, 30° C. 65% RH, 3rd Month",108.32%
same,Assay (%),"[1]; in cream Batch No. SFD-01, 40° C. 75% RH, 1st Month",108.58%
same,Assay (%),"[1]; in cream Batch No. SFD-01, 40° C. 75% RH, 2nd Month",108.44%
same,Assay (%),"[1]; in cream Batch No. SFD-01, 40° C. 75% RH, 3rd Month",108.30%
same,Assay (%),"[1]; in cream Batch No. SFD-01, Freezthaw, 1st Month",108.41%
same,Assay (%),"[1]; in cream Batch No. SFD-01, Initial",108.62%
same,Assay (%),"[1]; in cream Batch No. SFD-01, Temperature cycling, 1st Month",108.52%
same,Assay (%),"[1]; in cream Batch No. SFM-01, 25° C. 60% RH, 1st Month",108.24%
same,Assay (%),"[1]; in cream Batch No. SFM-01, 25° C. 60% RH, 2nd Month",108.22%
same,Assay (%),"[1]; in cream Batch No. SFM-01, 25° C. 60% RH, 3rd Month",108.20%
same,Assay (%),"[1]; in cream Batch No. SFM-01, 25° C. 60% RH, 6th Month",107.95%
same,Assay (%),"[1]; in cream Batch No. SFM-01, 30° C. 65% RH, 1st Month",108.23%
same,Assay (%),"[1]; in cream Batch No. SFM-01, 30° C. 65% RH, 2nd Month",108.21%
same,Assay (%),"[1]; in cream Batch No. SFM-01, 30° C. 65% RH, 3rd Month",108.16%
same,Assay (%),"[1]; in cream Batch No. SFM-01, 30° C. 65% RH, 6th Month",107.92%
same,Assay (%),"[1]; in cream Batch No. SFM-01, 40° C. 75% RH, 1st Month",108.26%
same,Assay (%),"[1]; in cream Batch No. SFM-01, 40° C. 75% RH, 2nd Month",108.14%
same,Assay (%),"[1]; in cream Batch No. SFM-01, 40° C. 75% RH, 3rd Month",108.08%
same,Assay (%),"[1]; in cream Batch No. SFM-01, 40° C. 75% RH, 6th Month",107.89%
same,Assay (%),"[1]; in cream Batch No. SFM-01, Freezthaw, 1st Month",108.11%
same,Assay (%),"[1]; in cream Batch No. SFM-01, Initial",108.27%
same,Assay (%),"[1]; in cream Batch No. SFM-01, Temperature cycling, 1st Month",107.63%
same,Assay (%),"[1]; in cream Batch No. SPC-01, 25° C. 60% RH, 1st Month",108.30%
same,Assay (%),"[1]; in cream Batch No. SPC-01, 25° C. 60% RH, 2nd Month",108.24%
same,Assay (%),"[1]; in cream Batch No. SPC-01, 25° C. 60% RH, 3rd Month",108.15%
same,Assay (%),"[1]; in cream Batch No. SPC-01, 25° C. 60% RH, 6th Month",108.08%
same,Assay (%),"[1]; in cream Batch No. SPC-01, 30° C. 65% RH, 1st Month",108.31%
same,Assay (%),"[1]; in cream Batch No. SPC-01, 30° C. 65% RH, 2nd Month",108.32%
same,Assay (%),"[1]; in cream Batch No. SPC-01, 30° C. 65% RH, 3rd Month",108.22%
same,Assay (%),"[1]; in cream Batch No. SPC-01, 30° C. 65% RH, 6th Month",108.11%
same,Assay (%),"[1]; in cream Batch No. SPC-01, 40° C. 75% RH, 1st Month",108.33%
same,Assay (%),"[1]; in cream Batch No. SPC-01, 40° C. 75% RH, 2nd Month",108.24%
same,Assay (%),"[1]; in cream Batch No. SPC-01, 40° C. 75% RH, 3rd Month",108.10%
same,Assay (%),"[1]; in cream Batch No. SPC-01, 40° C. 75% RH, 6th Month",108.01%
same,Assay (%),"[1]; in cream Batch No. SPC-01, Freezthaw, 1st Month",108.22%
same,Assay (%),"[1]; in cream Batch No. SPC-01, Initial",108.38%
same,Assay (%),"[1]; in cream Batch No. SPC-01, Temperature cycling, 1st Month",108.28%
same,Initial (%),"[2]; raw API tested at the time of receipt from the supplier, method not stated",100.6%
same,Assay (%) HPLC,[2]; 45° C. (C) closed Petri dish,92.12%
same,Percentage Drop (%) HPLC,[2]; 45° C. (C) closed Petri dish,8.48%
same,Assay (%) HPLC,[2]; 45° C. (O) open Petri dish,89.52%
same,Percentage Drop (%) HPLC,[2]; 45° C. (O) open Petri dish,11.08%
same,loss in 3 Months,[2]; 45° C. (open condition),about 11%
same,Assay (%) HPLC,[2]; RT (C) closed Petri dish,94.37%
same,Percentage Drop (%) HPLC,[2]; RT (C) closed Petri dish,6.23%
same,Assay (%) HPLC,[2]; RT (O) open Petri dish,92.93%
same,Percentage Drop (%) HPLC,[2]; RT (O) open Petri dish,7.67%
same,loss in 3 Months,[2]; room temperature (open condition),about 7.7%
same,"stability as an API, Sodium Fusidate compared with Fusidic acid","[2]; raw APIs, Tables 1 and 2",deteriorates more rapidly than Sodium Fusidate
same,Assay (%) Titration,[3]; 45° C. (C) closed Petri dish,99.10%
same,Percentage Drop (%) Titration,[3]; 45° C. (C) closed Petri dish,1.50%
same,Assay (%) Titration,[3]; 45° C. (O) open Petri dish,98.52%
same,Percentage Drop (%) Titration,[3]; 45° C. (O) open Petri dish,2.08%
same,Assay (%) Titration,[3]; RT (C) closed Petri dish,99.02%
same,Percentage Drop (%) Titration,[3]; RT (C) closed Petri dish,1.58%
same,Assay (%) Titration,[3]; RT (O) open Petri dish,99.21%
same,Percentage Drop (%) Titration,[3]; RT (O) open Petri dish,1.39%

# From patent US9066861B2 (priority 2009, dated 2015)
